From patent publication US7118895B2, “Process for producing aglycon by using diglycosidase and flavor-improved food containing the aglycon and converting agent to be used in the process” (Amano Enzyme Inc., priority 2000, dated 2006)

Tested on: Crude diglycosidase
Assay: Examination of temperature in the conversion into isoflavone aglycons by diglycosidase using soybean materials
Format: biochemical, Penicillium multicolor IAM7153
Set-up: Decomposition efficiency of glycitin family in roasted soy flour / Decomposition efficiency of daidzin family in roasted soy flour / Decomposition efficiency of genistin family in soymilk / Decomposition efficiency of daidzin family in soymilk / Decomposition efficiency of glycitin family in defatted soybean / Decomposition efficiency of daidzin family in defatted soybean: concentration or dose not given beside the values
Method in brief: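 Soybean materials (50 mg) suspended in 20 mM acetate buffer pH 4.0 reacted with crude diglycosidase diluted to 1.88 AU/mL at 80, 65, 55, 45, 37 or 30° C. Reactions stopped with ethanol at 0, 1, 3 and 6 h; isoflavone glycosides and aglycons in supernatant detected by HPLC.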

[1] = 30° C., heat treatment of enzyme no, reaction time 0 h
[2] = 30° C., heat treatment of enzyme no, reaction time 1 h
[3] = 30° C., heat treatment of enzyme no, reaction time 3 h
[4] = 30° C., heat treatment of enzyme no, reaction time 6 h
[5] = 30° C., heat treatment of enzyme yes, reaction time 6 h
[6] = 30 °C, heat treatment of enzyme: no, 0 h
[7] = 30 °C, heat treatment of enzyme: no, 1 h
[8] = 30 °C, heat treatment of enzyme: no, 3 h
[9] = 30 °C, heat treatment of enzyme: no, 6 h
[10] = 30 °C, heat treatment of enzyme: yes, 6 h
[11] = 45° C., heat treatment of enzyme no, reaction time 0 h
[12] = 45° C., heat treatment of enzyme no, reaction time 1 h
[13] = 45° C., heat treatment of enzyme no, reaction time 3 h
[14] = 45° C., heat treatment of enzyme no, reaction time 6 h
[15] = 45° C., heat treatment of enzyme yes, reaction time 6 h
[16] = 45 °C, heat treatment of enzyme: no, 0 h
[17] = 45 °C, heat treatment of enzyme: no, 1 h
[18] = 45 °C, heat treatment of enzyme: no, 3 h
[19] = 45 °C, heat treatment of enzyme: no, 6 h
[20] = 45 °C, heat treatment of enzyme: yes, 6 h
[21] = 55° C., heat treatment of enzyme no, reaction time 0 h
[22] = 55° C., heat treatment of enzyme no, reaction time 1 h
[23] = 55° C., heat treatment of enzyme no, reaction time 3 h
[24] = 55° C., heat treatment of enzyme no, reaction time 6 h
[25] = 55° C., heat treatment of enzyme yes, reaction time 6 h
[26] = 55 °C, heat treatment of enzyme: no, 0 h
[27] = 55 °C, heat treatment of enzyme: no, 1 h
[28] = 55 °C, heat treatment of enzyme: no, 3 h
[29] = 55 °C, heat treatment of enzyme: no, 6 h
[30] = 55 °C, heat treatment of enzyme: yes, 6 h
[31] = 65° C., heat treatment of enzyme no, reaction time 0 h
[32] = 65° C., heat treatment of enzyme no, reaction time 1 h
[33] = 65° C., heat treatment of enzyme no, reaction time 3 h
[34] = 65° C., heat treatment of enzyme no, reaction time 6 h
[35] = 65° C., heat treatment of enzyme yes, reaction time 6 h
[36] = 65 °C, heat treatment of enzyme: no, 0 h
[37] = 65 °C, heat treatment of enzyme: no, 1 h
[38] = 65 °C, heat treatment of enzyme: no, 3 h
[39] = 65 °C, heat treatment of enzyme: no, 6 h
[40] = 65 °C, heat treatment of enzyme: yes, 6 h
[41] = 80° C., heat treatment of enzyme no, reaction time 0 h
[42] = 80° C., heat treatment of enzyme no, reaction time 1 h
[43] = 80° C., heat treatment of enzyme no, reaction time 3 h
[44] = 80° C., heat treatment of enzyme no, reaction time 6 h
[45] = 80° C., heat treatment of enzyme yes, reaction time 6 h
[46] = 80 °C, heat treatment of enzyme: no, 0 h
[47] = 80 °C, heat treatment of enzyme: no, 1 h
[48] = 80 °C, heat treatment of enzyme: no, 3 h
[49] = 80 °C, heat treatment of enzyme: no, 6 h
[50] = 80 °C, heat treatment of enzyme: yes, 6 h

Decomposition efficiency of genistin family in concentrated soybean protein [1]: 49.8%
Decomposition efficiency of genistin family in defatted soybean [1]: 38.0%
Decomposition efficiency of genistin family in concentrated soybean protein [2]: 41.1%
Decomposition efficiency of genistin family in defatted soybean [2]: not detected
Decomposition efficiency of genistin family in concentrated soybean protein [3]: 30.3%
Decomposition efficiency of genistin family in defatted soybean [3]: not detected
Decomposition efficiency of genistin family in concentrated soybean protein [4]: 19.7%
Decomposition efficiency of genistin family in defatted soybean [4]: 7.6%
Decomposition efficiency of genistin family in concentrated soybean protein [5]: 51.8%
Decomposition efficiency of genistin family in defatted soybean [5]: not detected
Decomposition efficiency of genistin family in roasted soy flour [6]: 49.7%
Decomposition efficiency of genistin family in soymilk [6]: 30.7%
Decomposition efficiency of genistin family in roasted soy flour [7]: 25.7%
Decomposition efficiency of genistin family in soymilk [7]: not detected
Decomposition efficiency of genistin family in roasted soy flour [8]: 12.0%
Decomposition efficiency of genistin family in soymilk [8]: not detected
Decomposition efficiency of genistin family in roasted soy flour [9]: 5.5%
Decomposition efficiency of genistin family in soymilk [9]: not detected
Decomposition efficiency of genistin family in roasted soy flour [10]: 50.3%
Decomposition efficiency of genistin family in soymilk [10]: 31.2%
Decomposition efficiency of genistin family in concentrated soybean protein [11]: 49.7%
Decomposition efficiency of genistin family in defatted soybean [11]: 37.0%
Decomposition efficiency of genistin family in concentrated soybean protein [12]: 22.2%
Decomposition efficiency of genistin family in defatted soybean [12]: 0.9%
Decomposition efficiency of genistin family in concentrated soybean protein [13]: 15.6%
Decomposition efficiency of genistin family in defatted soybean [13]: 1.0%
Decomposition efficiency of genistin family in concentrated soybean protein [14]: 5.3%
Decomposition efficiency of genistin family in defatted soybean [14]: 1.0%
Decomposition efficiency of genistin family in concentrated soybean protein [15]: 54.5%
Decomposition efficiency of genistin family in defatted soybean [15]: 1.3%
Decomposition efficiency of genistin family in roasted soy flour [16]: 50.2%
Decomposition efficiency of genistin family in soymilk [16]: 31.0%
Decomposition efficiency of genistin family in roasted soy flour [17]: 3.7%
Decomposition efficiency of genistin family in soymilk [17]: not detected
Decomposition efficiency of genistin family in roasted soy flour [18]: 5.6%
Decomposition efficiency of genistin family in soymilk [18]: not detected
Decomposition efficiency of genistin family in roasted soy flour [19]: 1.2%
Decomposition efficiency of genistin family in soymilk [19]: not detected
Decomposition efficiency of genistin family in roasted soy flour [20]: 51.7%
Decomposition efficiency of genistin family in soymilk [20]: 34.4%
Decomposition efficiency of genistin family in concentrated soybean protein [21]: 50.1%
Decomposition efficiency of genistin family in defatted soybean [21]: 38.0%
Decomposition efficiency of genistin family in concentrated soybean protein [22]: 7.0%
Decomposition efficiency of genistin family in defatted soybean [22]: 0.0%
Decomposition efficiency of genistin family in concentrated soybean protein [23]: 0.8%
Decomposition efficiency of genistin family in defatted soybean [23]: 0.0%
Decomposition efficiency of genistin family in concentrated soybean protein [24]: not detected
Decomposition efficiency of genistin family in defatted soybean [24]: 0.0%
Decomposition efficiency of genistin family in concentrated soybean protein [25]: 52.3%
Decomposition efficiency of genistin family in defatted soybean [25]: 0.0%
Decomposition efficiency of genistin family in roasted soy flour [26]: 49.7%
Decomposition efficiency of genistin family in soymilk [26]: 31.6%
Decomposition efficiency of genistin family in roasted soy flour [27]: 1.2%
Decomposition efficiency of genistin family in soymilk [27]: not detected
Decomposition efficiency of genistin family in roasted soy flour [28]: not detected
Decomposition efficiency of genistin family in soymilk [28]: not detected
Decomposition efficiency of genistin family in roasted soy flour [29]: not detected
Decomposition efficiency of genistin family in soymilk [29]: not detected
Decomposition efficiency of genistin family in roasted soy flour [30]: 54.0%
Decomposition efficiency of genistin family in soymilk [30]: 37.4%
Decomposition efficiency of genistin family in concentrated soybean protein [31]: 49.8%
Decomposition efficiency of genistin family in defatted soybean [31]: 37.0%
Decomposition efficiency of genistin family in concentrated soybean protein [32]: not detected
Decomposition efficiency of genistin family in defatted soybean [32]: 0.0%
Decomposition efficiency of genistin family in concentrated soybean protein [33]: not detected
Decomposition efficiency of genistin family in defatted soybean [33]: 1.8%
Decomposition efficiency of genistin family in concentrated soybean protein [34]: not detected
Decomposition efficiency of genistin family in defatted soybean [34]: 3.3%
Decomposition efficiency of genistin family in concentrated soybean protein [35]: 50.8%
Decomposition efficiency of genistin family in defatted soybean [35]: 28.2%
Decomposition efficiency of genistin family in roasted soy flour [36]: 49.7%
Decomposition efficiency of genistin family in soymilk [36]: 30.7%
Decomposition efficiency of genistin family in roasted soy flour [37]: not detected
Decomposition efficiency of genistin family in soymilk [37]: not detected
Decomposition efficiency of genistin family in roasted soy flour [38]: not detected
Decomposition efficiency of genistin family in soymilk [38]: not detected
Decomposition efficiency of genistin family in roasted soy flour [39]: not detected
Decomposition efficiency of genistin family in soymilk [39]: not detected
Decomposition efficiency of genistin family in roasted soy flour [40]: 50.7%
Decomposition efficiency of genistin family in soymilk [40]: 44.4%
Decomposition efficiency of genistin family in concentrated soybean protein [41]: 49.7%
Decomposition efficiency of genistin family in defatted soybean [41]: 37.0%
Decomposition efficiency of genistin family in concentrated soybean protein [42]: 29.6%
Decomposition efficiency of genistin family in defatted soybean [42]: 9.6%
Decomposition efficiency of genistin family in concentrated soybean protein [43]: 30.3%
Decomposition efficiency of genistin family in defatted soybean [43]: 22.1%
Decomposition efficiency of genistin family in concentrated soybean protein [44]: 32.3%
Decomposition efficiency of genistin family in defatted soybean [44]: 35.3%
Decomposition efficiency of genistin family in concentrated soybean protein [45]: 51.9%
Decomposition efficiency of genistin family in defatted soybean [45]: 57.8%
Decomposition efficiency of genistin family in roasted soy flour [46]: 50.2%
Decomposition efficiency of genistin family in soymilk [46]: 31.0%
Decomposition efficiency of genistin family in roasted soy flour [47]: 7.8%
Decomposition efficiency of genistin family in soymilk [47]: 10.6%
Decomposition efficiency of genistin family in roasted soy flour [48]: 9.1%
Decomposition efficiency of genistin family in soymilk [48]: 24.3%
Decomposition efficiency of genistin family in roasted soy flour [49]: 18.4%
Decomposition efficiency of genistin family in soymilk [49]: 43.9%
Decomposition efficiency of genistin family in roasted soy flour [50]: 52.2%
Decomposition efficiency of genistin family in soymilk [50]: 64.5%
SMILES: O=c1c(-c2ccc(O)cc2)coc2cc(O[C@@H]3O[C@H](CO)[C@@H](O)[C@H](O)[C@H]3O)cc(O)c12 [genistin]
